Test results reported in ChEMBL document CHEMBL3797178, “Synthesis, antimycobacterial and antibacterial activity of 1-(6-amino-3,5-difluoropyridin-2-yl)fluoroquinolone derivatives containing an oxime functional moiety” (2016).
In brackets after ≈: the same amount, converted by molar mass.

Experiments:
Assay type in all cases: functional
Staphylococcus aureus [1] = experiment: Antibacterial activity against methicillin-sensitive Staphylococcus aureus 14-4 after 18 to 24 hrs by CLSI M100-S11 method
Enterococcus faecalis [2] = experiment: Antibacterial activity against Enterococcus faecalis 14-2 after 18 to 24 hrs by CLSI M100-S11 method
Klebsiella pneumoniae [3] = experiment: Antibacterial activity against Klebsiella pneumoniae 14-4 after 18 to 24 hrs by CLSI M100-S11 method
Enterococcus faecalis [4] = experiment: Antibacterial activity against Enterococcus faecalis 14-3 after 18 to 24 hrs by CLSI M100-S11 method
Escherichia coli [5] = experiment: Antibacterial activity against Escherichia coli 14-1 after 18 to 24 hrs by CLSI M100-S11 method
Enterococcus faecalis [6] = experiment: Antibacterial activity against Enterococcus faecalis 14-1 after 18 to 24 hrs by CLSI M100-S11 method
Klebsiella pneumoniae [7] = experiment: Antibacterial activity against Klebsiella pneumoniae 14-3 after 18 to 24 hrs by CLSI M100-S11 method
[8] = tested on: Staphylococcus epidermidis; experiment: Antibacterial activity against methicillin-sensitive Staphylococcus epidermidis 14-6 after 18 to 24 hrs by CLSI M100-S11 method
Escherichia coli [9] = experiment: Antibacterial activity against Escherichia coli ATCC 25922 after 18 to 24 hrs by CLSI M100-S11 method
[10] = tested on: Mycobacterium tuberculosis; experiment: Antimycobacterial activity against Mycobacterium tuberculosis H37Rv ATCC 27294 after 3 days by microplate Alamar Blue assay; conditions: H37Rv ATCC 27294, 72 h
[11] = tested on: Staphylococcus epidermidis; experiment: Antibacterial activity against methicillin-resistant Staphylococcus epidermidis 14-39 after 18 to 24 hrs by CLSI M100-S11 method
Escherichia coli [12] = experiment: Antibacterial activity against extended-spectrum beta-lactamase-producing Escherichia coli 14-1 after 18 to 24 hrs by CLSI M100-S11 method
Staphylococcus aureus [13] = experiment: Antibacterial activity against Staphylococcus aureus CMCC 26003 after 18 to 24 hrs by CLSI M100-S11 method
Pseudomonas aeruginosa [14] = experiment: Antibacterial activity against Pseudomonas aeruginosa 14-9 after 18 to 24 hrs by CLSI M100-S11 method
Klebsiella pneumoniae [15] = experiment: Antibacterial activity against extended-spectrum beta-lactamase-producing Klebsiella pneumoniae 14-17 after 18 to 24 hrs by CLSI M100-S11 method
Klebsiella pneumoniae [16] = experiment: Antibacterial activity against Klebsiella pneumoniae 14-2 after 18 to 24 hrs by CLSI M100-S11 method
[17] = tested on: Staphylococcus epidermidis; experiment: Antibacterial activity against methicillin-resistant Staphylococcus epidermidis 14-37 after 18 to 24 hrs by CLSI M100-S11 method
Staphylococcus aureus [18] = experiment: Antibacterial activity against methicillin-resistant Staphylococcus aureus 14-5 after 18 to 24 hrs by CLSI M100-S11 method
Staphylococcus aureus [19] = experiment: Antibacterial activity against methicillin-sensitive Staphylococcus aureus 14-3 after 18 to 24 hrs by CLSI M100-S11 method
Pseudomonas aeruginosa [20] = experiment: Antibacterial activity against Pseudomonas aeruginosa ATCC 27853 after 18 to 24 hrs by CLSI M100-S11 method
[21] = tested on: Staphylococcus epidermidis; experiment: Antibacterial activity against methicillin-sensitive Staphylococcus epidermidis 14-4 after 18 to 24 hrs by CLSI M100-S11 method
[22] = tested on: Staphylococcus epidermidis; experiment: Antibacterial activity against methicillin-resistant Staphylococcus epidermidis 14-22 after 18 to 24 hrs by CLSI M100-S11 method
Enterococcus faecium [23] = experiment: Antibacterial activity against Enterococcus faecium 14-1 after 18 to 24 hrs by CLSI M100-S11 method
Enterococcus faecium [24] = experiment: Antibacterial activity against Enterococcus faecium 14-2 after 18 to 24 hrs by CLSI M100-S11 method
Pseudomonas aeruginosa [25] = experiment: Antibacterial activity against Pseudomonas aeruginosa 14-16 after 18 to 24 hrs by CLSI M100-S11 method
Klebsiella pneumoniae [26] = experiment: Antibacterial activity against Klebsiella pneumoniae 14-1 after 18 to 24 hrs by CLSI M100-S11 method
Klebsiella pneumoniae [27] = experiment: Antibacterial activity against extended-spectrum beta-lactamase-producing Klebsiella pneumoniae 14-18 after 18 to 24 hrs by CLSI M100-S11 method
Pseudomonas aeruginosa [28] = experiment: Antibacterial activity against Pseudomonas aeruginosa 14-14 after 18 to 24 hrs by CLSI M100-S11 method
Escherichia coli [29] = experiment: Antibacterial activity against extended-spectrum beta-lactamase-producing Escherichia coli 14-2 after 18 to 24 hrs by CLSI M100-S11 method
[30] = tested on: Staphylococcus epidermidis; experiment: Antibacterial activity against methicillin-sensitive Staphylococcus epidermidis 14-2 after 18 to 24 hrs by CLSI M100-S11 method
Streptococcus pneumoniae = experiment: Antibacterial activity against Streptococcus pneumoniae ATCC 19615 after 18 to 24 hrs by CLSI M100-S11 method
Escherichia coli [31] = experiment: Antibacterial activity against Escherichia coli 14-2 after 18 to 24 hrs by CLSI M100-S11 method
Klebsiella pneumoniae [32] = experiment: Antibacterial activity against extended-spectrum beta-lactamase-producing Klebsiella pneumoniae 14-19 after 18 to 24 hrs by CLSI M100-S11 method
Pseudomonas aeruginosa [33] = experiment: Antibacterial activity against Pseudomonas aeruginosa 14-19 after 18 to 24 hrs by CLSI M100-S11 method
Pseudomonas aeruginosa [34] = experiment: Antibacterial activity against Pseudomonas aeruginosa 14-15 after 18 to 24 hrs by CLSI M100-S11 method
Staphylococcus aureus [35] = experiment: Antibacterial activity against methicillin-resistant Staphylococcus aureus 14-4 after 18 to 24 hrs by CLSI M100-S11 method
Staphylococcus aureus [36] = experiment: Antibacterial activity against methicillin-sensitive Staphylococcus aureus 14-2 after 18 to 24 hrs by CLSI M100-S11 method

| SMILES | MIC (Staphylococcus aureus [1]) [µg/mL] | MIC (Enterococcus faecalis [2]) [µg/mL] | MIC (Klebsiella pneumoniae [3]) [µg/mL] | MIC (Enterococcus faecalis [4]) [µg/mL] | MIC (Escherichia coli [5]) [µg/mL] | MIC (Enterococcus faecalis [6]) [µg/mL] | MIC (Klebsiella pneumoniae [7]) [µg/mL] | MIC [8] [µg/mL] | MIC (Escherichia coli [9]) [µg/mL] | MIC [10] [µg/mL] | MIC [11] [µg/mL] | MIC (Escherichia coli [12]) [µg/mL] | MIC (Staphylococcus aureus [13]) [µg/mL] | MIC (Pseudomonas aeruginosa [14]) [µg/mL] | MIC (Klebsiella pneumoniae [15]) [µg/mL] | MIC (Klebsiella pneumoniae [16]) [µg/mL] | MIC [17] [µg/mL] | MIC (Staphylococcus aureus [18]) [µg/mL] | MIC (Staphylococcus aureus [19]) [µg/mL] | MIC (Pseudomonas aeruginosa [20]) [µg/mL] | other results |
| --- | --- | --- | --- | --- | --- | --- | --- | --- | --- | --- | --- | --- | --- | --- | --- | --- | --- | --- | --- | --- | --- |
| CCO/N=C1\CN(c2nc3c(cc2F)c(=O)c(C(=O)O)cn3-c2nc(N)c(F)cc2F)[C@H]1CN | 4 (≈ 8.38 µM) | > 128 | 128 (≈ 268 µM) | > 128 | > 128 | > 128 | > 128 | 128 (≈ 268 µM) | 2 (≈ 4.19 µM) | > 32 | > 129 | 64 (≈ 134 µM) | 2 (≈ 4.19 µM) | 32 (≈ 67 µM) | > 128 | > 128 | > 128 | > 128 | 8 (≈ 16.8 µM) | 16 (≈ 33.5 µM) | MIC [21]: 64 µg/mL (≈ 134 µM); MIC [22]: > 128 µg/mL; MIC (Enterococcus faecium [23]): > 128 µg/mL; MIC (Enterococcus faecium [24]): 32 µg/mL (≈ 67 µM); MIC (Pseudomonas aeruginosa [25]): 64 µg/mL (≈ 134 µM); MIC (Klebsiella pneumoniae [26]): > 128 µg/mL; MIC (Klebsiella pneumoniae [27]): 64 µg/mL (≈ 134 µM); MIC (Pseudomonas aeruginosa [28]): 64 µg/mL (≈ 134 µM); MIC (Escherichia coli [29]): > 128 µg/mL; MIC [30]: > 128 µg/mL; MIC (Streptococcus pneumoniae): 32 µg/mL (≈ 67 µM); MIC (Escherichia coli [31]): > 128 µg/mL; MIC (Klebsiella pneumoniae [32]): > 128 µg/mL; MIC (Pseudomonas aeruginosa [33]): 64 µg/mL (≈ 134 µM); MIC (Pseudomonas aeruginosa [34]): 64 µg/mL (≈ 134 µM); MIC (Staphylococcus aureus [35]): > 128 µg/mL; MIC (Staphylococcus aureus [36]): 4 µg/mL (≈ 8.38 µM) |
| CO/N=C1\CN(c2nc3c(cc2F)c(=O)c(C(=O)O)cn3-c2nc(N)c(F)cc2F)[C@@H]1CN | 16 (≈ 34.5 µM) | > 128 | > 128 | > 128 | > 128 | > 128 | > 128 | > 128 | 16 (≈ 34.5 µM) | > 32 | > 131 | > 128 | 16 (≈ 34.5 µM) | 64 (≈ 138 µM) | > 128 | > 128 | > 128 | > 128 | 32 (≈ 69.1 µM) | 64 (≈ 138 µM) | MIC [21]: > 128 µg/mL; MIC [22]: > 128 µg/mL; MIC (Enterococcus faecium [23]): > 128 µg/mL; MIC (Enterococcus faecium [24]): 64 µg/mL (≈ 138 µM); MIC (Pseudomonas aeruginosa [25]): 64 µg/mL (≈ 138 µM); MIC (Klebsiella pneumoniae [26]): > 128 µg/mL; MIC (Klebsiella pneumoniae [27]): 64 µg/mL (≈ 138 µM); MIC (Pseudomonas aeruginosa [28]): 64 µg/mL (≈ 138 µM); MIC (Escherichia coli [29]): > 128 µg/mL; MIC [30]: > 128 µg/mL; MIC (Streptococcus pneumoniae): 128 µg/mL (≈ 276 µM); MIC (Escherichia coli [31]): > 128 µg/mL; MIC (Klebsiella pneumoniae [32]): > 128 µg/mL; MIC (Pseudomonas aeruginosa [33]): 64 µg/mL (≈ 138 µM); MIC (Pseudomonas aeruginosa [34]): 64 µg/mL (≈ 138 µM); MIC (Staphylococcus aureus [35]): > 128 µg/mL; MIC (Staphylococcus aureus [36]): 32 µg/mL (≈ 69.1 µM) |
| CC1(CN)CN(c2nc3c(cc2F)c(=O)c(C(=O)O)cn3-c2nc(N)c(F)cc2F)C/C1=N\OCc1ccccc1 (stereo not drawn) | 4 (≈ 7.05 µM) | > 128 | > 128 | > 128 | > 128 | > 128 | > 128 | > 128 | 16 (≈ 28.2 µM) | 15.6 (≈ 27.5 µM) | > 128 | 64 (≈ 113 µM) | 0.25 (≈ 0.441 µM) | 128 (≈ 226 µM) | > 128 | > 128 | > 128 | 64 (≈ 113 µM) | 8 (≈ 14.1 µM) | 128 (≈ 226 µM) | MIC [21]: > 128 µg/mL; MIC [22]: 64 µg/mL (≈ 113 µM); MIC (Enterococcus faecium [23]): > 128 µg/mL; MIC (Enterococcus faecium [24]): 8 µg/mL (≈ 14.1 µM); MIC (Pseudomonas aeruginosa [25]): 128 µg/mL (≈ 226 µM); MIC (Klebsiella pneumoniae [26]): > 128 µg/mL; MIC (Klebsiella pneumoniae [27]): > 128 µg/mL; MIC (Pseudomonas aeruginosa [28]): 128 µg/mL (≈ 226 µM); MIC (Escherichia coli [29]): > 128 µg/mL; MIC [30]: > 128 µg/mL; MIC (Streptococcus pneumoniae): 32 µg/mL (≈ 56.4 µM); MIC (Escherichia coli [31]): 128 µg/mL (≈ 226 µM); MIC (Klebsiella pneumoniae [32]): > 128 µg/mL; MIC (Pseudomonas aeruginosa [33]): 128 µg/mL (≈ 226 µM); MIC (Pseudomonas aeruginosa [34]): 128 µg/mL (≈ 226 µM); MIC (Staphylococcus aureus [35]): 64 µg/mL (≈ 113 µM); MIC (Staphylococcus aureus [36]): 0.25 µg/mL (≈ 0.441 µM) |
| NCC1CN(c2nc3c(cc2F)c(=O)c(C(=O)O)cn3-c2nc(N)c(F)cc2F)C/C1=N\OCc1ccccc1 (stereo not drawn) | 0.25 (≈ 0.452 µM) | 16 (≈ 28.9 µM) | 128 (≈ 231 µM) | 16 (≈ 28.9 µM) | 128 (≈ 231 µM) | 8 (≈ 14.5 µM) | 128 (≈ 231 µM) | 32 (≈ 57.8 µM) | 0.5 (≈ 0.903 µM) | 3.81 (≈ 6.88 µM) | 32 (≈ 57.8 µM) | 8 (≈ 14.5 µM) | < 0.008 | 32 (≈ 57.8 µM) | 64 (≈ 116 µM) | 128 (≈ 231 µM) | 32 (≈ 57.8 µM) | 128 (≈ 231 µM) | 0.25 (≈ 0.452 µM) | 8 (≈ 14.5 µM) | MIC [21]: 32 µg/mL (≈ 57.8 µM); MIC [22]: 16 µg/mL (≈ 28.9 µM); MIC (Enterococcus faecium [23]): 128 µg/mL (≈ 231 µM); MIC (Enterococcus faecium [24]): 16 µg/mL (≈ 28.9 µM); MIC (Pseudomonas aeruginosa [25]): 32 µg/mL (≈ 57.8 µM); MIC (Klebsiella pneumoniae [26]): 128 µg/mL (≈ 231 µM); MIC (Klebsiella pneumoniae [27]): 32 µg/mL (≈ 57.8 µM); MIC (Pseudomonas aeruginosa [28]): 32 µg/mL (≈ 57.8 µM); MIC (Escherichia coli [29]): 128 µg/mL (≈ 231 µM); MIC [30]: 64 µg/mL (≈ 116 µM); MIC (Streptococcus pneumoniae): 16 µg/mL (≈ 28.9 µM); MIC (Escherichia coli [31]): 128 µg/mL (≈ 231 µM); MIC (Klebsiella pneumoniae [32]): 128 µg/mL (≈ 231 µM); MIC (Pseudomonas aeruginosa [33]): 32 µg/mL (≈ 57.8 µM); MIC (Pseudomonas aeruginosa [34]): 32 µg/mL (≈ 57.8 µM); MIC (Staphylococcus aureus [35]): 64 µg/mL (≈ 116 µM); MIC (Staphylococcus aureus [36]): 0.015 µg/mL (≈ 0.0271 µM) |
